In US20250207131A1, “MODIFIED RNA AGENTS WITH REDUCED OFF-TARGET EFFECT” (Alnylam Pharmaceuticals, Inc., priority 2018, published 2025):

Legend:
[1] = tested on: luciferase reporter plasmids (psiCHECK2, Renilla luciferase fused to target sequence); assay: Off-target Dual-Glo luciferase reporter assay in COS-7 cells; format: cell-based
Description: Dual-Glo® Luciferase assay: Cos7 cells (ATCC, Manassas, VA) were grown to near confluence at 37° C. in an atmosphere of 5% CO2 in DMEM (ATCC) supplemented with 10% FBS, before being released from the plate by trypsinization. siRNA and psiCHCECK2 plasmid transfection was carried out by adding 5 μL of siRNA duplexes and 5 μL of psiCHECK2 plasmid per well along with 5 μL of Opti-MEM plus 0.1 μL of Lipofectamine 2000 per well (Invitrogen, Carlsbad CA. cat #13778-150) and then incubated at room temperature for 15 minutes. The mixture was then added to the cells which were re-suspended in 35 ul of fresh complete media. The transfected cells were incubated at 37° C. in an atmosphere of 5% CO2.
48 hours after the siRNAs and psiCHECK2 plasmid were transfected; Firefly (transfection control) and Renilla (fused to target sequence) luciferase were measured. First, media was removed from cells. Then Firefly luciferase activity was measured by adding 20 μL of Dual-Glo® Luciferase Reagent equal to the culture medium volume to each well and mix. The mixture was incubated at room temperature for 30 minutes before luminescence (500 nm) was measured on a Spectramax (Molecular Devices) to detect the Firefly luciferase signal. Renilla luciferase activity was measured by adding 20 μL of room temperature of Dual-Glo® Stop & Glo® Reagent was added to each well and the plates were incubated for 10-15 minutes before luminescence was again measured to determine the Renilla luciferase signal. The Dual-Glo® Stop & Glo® Reagent, quenches the firefly luciferase signal and sustained luminescence for the Renilla luciferase reaction. siRNA activity was determined by normalizing the Renilla signal to the Firefly (control) signal within each well. The magnitude of siRNA activity was then assessed relative to cells that were transfected with the same vector but were not treated with siRNA or were treated with a non-targeting siRNA. All transfections were done at n=2 or greater.

[2] = tested on: TTR; assay: Mouse pharmacodynamic study, circulating TTR protein; format: in vivo; set-up: key: fraction of vehicle-control group mean serum TTR protein; settings: mice, single dose 1 mg/kg, circulation, Day 7
Description: In mouse pharmacodynamic studies, female C57BL/6 mice (Charles River Laboratories) were administered a single dose of a vehicle control (1×PBS or 0.9% sodium chloride) or siRNA subcutaneously in the upper back. Bleeds were collected by retro-orbital bleeding. Serum were separated by centrifuging at 13000 rpm at room temperature for 10 mins. Mouse livers were collected and immediately snap frozen in liquid nitrogen, and stored at −80° C. for mRNA and siRNA analysis.
Mouse TTR Serum Protein Methods:_TTR serum protein was quantified using a commercially available enzyme-linked immunosorbent assay, 41-ALBMS-E01 (ALPCO, Salem, NH), according to manufacturer's instructions. Briefly, serum samples were diluted 4000 fold in 1× ALPCO Kit Dilution Buffer. An 8-point mouse TTR standard curve was generated using 2.5× serial dilutions, ranging from 0 to 1000 ng/mL. Standards and samples (100 uL) were added to the plate and allowed to incubate for 30 minutes at room temperature. […] After a wash in ALPCO Kit 1× Wash Buffer, plates were incubated for 10 minutes at room temperature in the dark with 3,3′,5,5′-tetramethybenzidine (TMB) and hydrogen peroxide in citric acid buffer at pH 3.3. Reactions were quenched with 100 μL of […] sulfuric acid per well. Absorbance at […] was read on a SpectraMax plate reader, and data were fit to a 4-parameter curve (y=(A−D)/(1+(x/C)^B)+D) as calculated in Softmax Pro Software to determine serum TTR protein levels expressed in ug/mL. Protein levels at each time point were normalized to the respective group average of vehicle control serum protein values.

[3] = TTR-3, antisense strand modified at position 5, luciferase reporter, COS-7 cells
[4] = TTR-3, antisense strand modified at position 7, luciferase reporter, COS-7 cells
[5] = TTR-4, modification at antisense position 7, luciferase reporter plasmids co-transfected with siRNAs into COS-7 cells
[6] = antisense Position 7, Seq 3 (TTR)
[7] = antisense Position 7, Seq 4 (TTR)

IC50 [1, 3]	IC50 [1, 4]	IC50 [1, 5]	Substance	On-target, level of protein remaining with respect to PBS control [2, 6]	On-target, level of protein remaining with respect to PBS control [2, 7]
> 50 nM	> 50 nM	1.61 nM	2′-(R)-Me-UNA [Mod 7 (R)]	0.18	0.14
> 50 nM	> 50 nM	1.35 nM	2′-(S)-Me-UNA [Mod 7 (S)]	0.15	0.20
> 50 nM	> 50 nM	2.86 nM	3′-(R)-Me-UNA [Mod 6 (R)]	0.20	0.29
> 50 nM	> 50 nM	3.65 nM	3′-(S)-Me-UNA [Mod 6 (S)]	0.20	0.23
> 50 nM	> 50 nM	8.13 nM	5′-(R)-Me-UNA [Mod 5 (R)]	0.17	0.16
> 50 nM	> 50 nM	8.73 nM	5′-(S)-Me-UNA [Mod 5 (S)]	0.17	0.16
